Patent publication US5350768A, “Derivatives of cysteine” (priority 1987, dated 1994)
Like-named read-outs stand apart in the source and are kept apart here.

Key:
[1] = Protocol: (§1) Therefore, experiments were performed to investigate biological stability and bioavailability of the compounds of formula I, and to compare these with N-acetyl-L-cysteine.
[2] = Plasma thiol concentrations after intraintestinal injection in anaesthetized rats
Protocol: as §1
The thiols were injected into the intestines of anaesthetized rats. At various times after the injections blood samples were withdrawn, and plasma thiols analyzed. […] The values given represent mean±SEM, unless otherwise stated.

[3] = Plasma concentrations and urinary excretion in healthy human volunteers after oral intake
Protocol: as §1
Plasma concentrations and urinary excretion in helthy human volunteers were measured after oral intake of N-acetyl-L-cysteine, and N-isobutyryl-L-cysteine, 1.23 mmole of each.

CC(C)C(=O)N[C@@H](CS)C(=O)O [N-isobutyryl-L-cysteine]
biological stability (in words) [1]: much more biologically stable | concentration ([2]; rat, in vivo): 13 ± 2.9 µM | plasma level after intraintestinal injection (in words) ([2]; rat, in vivo): reached considerable concentrations | bioavailability / plasma levels after oral intake (in words) ([3]; human, in vivo, po): reached high concentrations in plasma

CC(C)(C)C(=O)N[C@@H](CS)C(=O)O [N-pivaloyl-L-cysteine]
biological stability (in words) [1]: much more biologically stable | hydrolysis in homogenates [1]: not hydrolyzed to any measureable extent | concentration ([2]; rat, in vivo): 11.8 µM

CC(=O)N[C@@H](CS)C(=O)O [N-acetyl-L-cysteine, reference compound]
biological stability (in words) [1]: biologically unstable | plasma level after intraintestinal injection (in words) ([2]; rat, in vivo): barely detectable in plasma | concentration ([2]; read-out: concentrations of the thiols in plasma, after injection into intestines of anaesthetized rats, only one experiment performed): 0.7 µM | Cmax ([3]; human, in vivo, po, 1.23 mmol): < 1 µM | bioavailability / plasma levels after oral intake (in words) ([3]; oral intake): poor bioavailability
